Measured values: US12370143B2, “Compound or salt thereof and lipid particles” (FUJIFILM Corporation, priority 2018, dated 2025)
Where two headings read alike, the source gives them in different places.

Columns and labels:
[1] = Particle size of nucleic acid lipid particles (Luc2-siRNA); assay type: physicochemical; settings: compound/DSPC/cholesterol/DMG-PEG2000 50/10/38.5/1.5
Procedure, shortened: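 Lipid particles formed from oil phase (test lipid/DSPC/cholesterol/DMG-PEG2000, 50/10/38.5/1.5 molar, 20 mmol/L total in ethanol) micromixed 1:3 with Luc2-siRNA in pH 4 acetate buffer (19.7 μmol/L); siRNA/lipid 339 mol/mol, PBS-diluted and dialyzed. Size measured on ELS-Z2 dynamic light scattering.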

[2] = Encapsulation rate of siRNA in nucleic acid lipid particles (Luc2-siRNA); assay type: physicochemical; settings: compound/DSPC/cholesterol/DMG-PEG2000 50/10/38.5/1.5
Procedure, shortened: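 Encapsulation rate was calculated as (total − outer-phase siRNA)/total ×100. Total siRNA was quantified spectrophotometrically after lipid-dissolving ethanol precipitation, and unencapsulated siRNA by RiboGreen in TE (ex 485/em 535 nm). The particles were test lipid/DSPC/cholesterol/DMG-PEG2000 at 50/10/38.5/1.5, formed by microfluidic mixing with Luc2-siRNA at pH 4 and dialyzed against PBS.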

[3] = test system: Factor VII (FVII) protein; assay: Measurement of Factor VII (FVII) protein in mouse plasma after FVII-siRNA lipid particles; assay type: in vivo, C57BL6/J mice; settings: 0.1 mg/kg caudal vein, plasma 24 hours after administration, PBS group = 100%
Experimental: (§1) The Factor VII (FVII) protein was measured according to the method described in Nature Biotechnology (2010) 28, 172-176. C57BL6/J mice were randomly grouped (n=3). A dispersion liquid of nucleic acid lipid particles was prepared by the same method as that in <Preparation of nucleic acid lipid particles>, except that FVII-siRNA having the sequence described in Molecular Therapy (2009) 17, p. 878 was used instead of Luc-siRNA. The dispersion liquid was administered to the caudal vein of the mice at a dosage of 0.1 mg/kg. For comparison, PBS at the same volume was administered to the caudal vein of the mice. Twenty four hours after the administration, blood was collected from the caudal vena cava, thereby obtaining plasma. The amount of FVII protein was quantified using the obtained plasma and a Biophen FVII assay kit (Aniara).
The FVII amount in the plasma sample of each individual in the PBS administration group was regarded as 100%, and the ratio of the FVII amount in the plasma sample of each individual to 100% was adopted as a measurement value.

[4] = Particle size of nucleic acid lipid particles (FVII-siRNA); assay type: physicochemical
Experimental: The compounds described in Table 2, L-α-distearoylphosphatidylcholine (trade name: COATSOME® MC-8080; NOF corporation), cholesterol (trade name: Choesterol HP; NIPPON FINE CHEMICAL CO., LTD.), and 1,2-dimyristoyl-rac-glycero-3-(methylpolyoxyethylene 2000) (hereinafter, called DMG-PEG2000) (trade name: SUNBRIGHT® GM-020; NOF corporation) were dissolved in ethanol at a molar ratio of 50/10/38.5/1.5 such that the total lipid concentration became 20 mmol/L, thereby obtaining an oil phase.
An aqueous nucleic acid solution obtained by dissolving 5 mg of Luc2-siRNA having the sequence described in Biomacromolecules (2013) 14, p. 3905 in 1 mL of sterile water was diluted with 10 mmol/L acetate buffer having a pH 4 such that the nucleic acid concentration became 19.7 μmol/L, thereby obtaining a water phase. Then, the water phase and the oil phase were mixed together by a micromixer (see JP5288254B) using a syringe pump such that the volume ratio of water phase:oil phase became 3:1 (final ratio of siRNA/lipid=339 (mol/mol)), and the mixed solution was diluted 2× with PBS, thereby obtaining a dispersion liquid of nucleic acid lipid particles. The dispersion liquid was dialyzed (Slide-A-Lyzer G2, MWCO: 10 kD, Thermo Fisher Scientific) using a phosphate buffered saline such that ethanol was removed, thereby obtaining nucleic acid lipid particles.
The particle size of the nucleic acid lipid particles was measured by the same method as that in <Preparation of lipid particles>.
as §1

[5] = Nucleic acid encapsulation rate of nucleic acid lipid particles (FVII-siRNA); assay type: physicochemical
Experimental: A 3 mol/L aqueous sodium acetate solution (30 μL) and 9 μL of glycogen were added to 60 μL of the lipid particles retaining nucleic acids, and then 1.5 mL of ethanol was added thereto such that only the nucleic acids were precipitated while the lipid was dissolved. Then, the supernatant was removed by centrifugation. After the precipitates were air-dried for 15 minutes or longer, water was added thereto such that the precipitates were redissolved, and the concentration thereof was measured using Nanodrop NF1000 (Thermo Fisher Scientific), thereby quantifying the total nucleic acid concentration.
The nucleic acid concentration was quantified using a Quant-iT RiboGreen RNA Assay Kit (Thermo Fisher Scientific) according to the protocol. First, a 20×TE buffer included in the above kit was diluted with water, thereby obtaining a 1×TE buffer. TE represents Tris/EDTA (ethylenediaminetetraacetic acid). In order to quantify only the nucleic acid in the outer water phase, the dispersion liquid of lipid particles retaining nucleic acids was diluted 10,000× with the 1×TE buffer.
The 10,000× diluted dispersion liquid of lipid particles (100 μL) was put in a 96-well plate, then 100 μL of a RiboGreen reagent (reagent included in the Quanti-iT Ribogreen RNA Assay Kit described above) diluted 2000× with the 1×TE buffer was added to a sample, and fluorescence (excitation wavelength: 485 nm, fluorescence wavelength: 535 nm) was measured using a plate reader Infinit EF200 (TECAN), thereby quantifying the nucleic acid concentration in the outer water phase.
By using the total nucleic acid concentration obtained through the above steps and the quantified nucleic acid concentration in the outer water phase, the nucleic acid encapsulation rate of the nucleic acid lipid particles was calculated according to the following Equation. Nucleic acid encapsulation rate (%)=(total nucleic acid concentration−nucleic acid concentration in outer water phase)/total nucleic acid concentration×100 The results are shown in Table 2.
as §1

[6] = test system: DMS273 cells constantly expressing Luc; assay: Target reporter protein (Luc) knockdown in cell, reporter protein assay; assay type: cell-based; settings: Homo sapiens, DMS-273
Experimental: The nucleic acid lipid particles prepared by the same method as that in <Preparation of nucleic acid lipid particles> by using the compounds described in Table 3 were evaluated by reporter assay by the following method.
By using pGL4.50 Luc2 (E1310 Promega), DMS273 cells (human small cell lung cancer) (European Collection of Authenticated Cell Cultures) constantly expressing Luc were prepared. RPMI (Gibco) (10% FBS (Gibco), 1% Penicillin-Streptomycin (Gibco), and 200 μg/mL Hygromycin (Wako)) was used as a culture medium. DMS273 cells (2.0×10^3) constantly expressing luciferase (Luc) were seeded in a 96-well plate and cultured in a 5% CO2 incubator for 24 hours, and then the medium was replaced. Then, 10 μL of each of the dispersion liquids of lipid particles diluted with PBS (Gibco) to yield a concentration of 1 to 1,000 nmol/L was added to the 96-well plate, and the final concentration was adjusted to 0.1 to 100 nmol/L (total amount of liquid: 110 μl). Thereafter, the cells were cultured in a 5% CO2 incubator for 24 hours, the medium was then replaced, and the cells were further cultured for 24 hours.
After the viable cell count was determined, the expression amount of Luc was quantified using a Steady Glo assay kit (Promega), and the knockdown efficiency was calculated according to the following equation. Then, the IC50 concentration at which the expression amount of Luc was knocked down to 50% was calculated.

[7] = Luc2-siRNA lipid particles using the compound, siRNA 0.1 to 100 nmol/L, concentration at which Luc expression is knocked down to 50%, read-out: IC50

## CCCCC/C=C\C/C=C\CCCCCCCCC(CCCCCCCC/C=C\C/C=C\CCCCC)OC(=O)OCCCN(C)C [Comparative Example 8, 3-(Dimethylamino)propyl((6Z,9Z,28Z,31Z)-heptatriaconta-6,9,28,31-tetraen-19-yl)carbonate, reference compound]
[1]
  Particle size (nm): 63.1 nm
[2]
  Nucleic acid encapsulation rate: 59%
[3]
  Relative amount of FVII protein (%): 58%
[4]
  Particle size (nm): 63.4 nm
[5]
  Nucleic acid encapsulation rate: 78%

## CCCCCCCC/C=C\CCCCCCCC(=O)OCCCCCCC(CCCCCCOC(=O)CCCCCCC/C=C\CCCCCCCC)OC(=O)OCCN(CC)CCN(CC)CC [Example 41, 7-(((2-((2-(diethylamino)ethyl)(ethyl)amino)ethoxy)carbonyl)oxy)tridecane-1,13-diyldioleate]
[6]; [7]
  IC50: 14 nM
[3]
  Relative amount of FVII protein (%): 18%

## CCCCCCCC/C=C\CCCCCCCC(=O)OCCCCCCC(CCCCCCOC(=O)CCCCCCC/C=C\CCCCCCCC)OC(=O)OCCN(CCN(CC)CC)C(C)C [Example 48, 7-(((2-((2-(Diethylamino)ethyl)(isopropyl)amino)ethoxy)carbonyl)oxy)tridecane-1,13-diyldioleate]
[6]; [7]
  IC50: 43 nM
[3]
  Relative amount of FVII protein (%): 20%

## CCCCCCCCC(CCCCCC)C(=O)OCCCCCCC(CCCCCCOC(=O)C(CCCCCC)CCCCCCCC)OC(=O)OCCN(CC)CCN(CC)CC (centres unmarked) [Example 56, 7-(((2-((2-(Diethylamino)ethyl)(ethyl)amino)ethoxy)carbonyl)oxy)tridecane-1,13-diylbis(2-hexyldecanoate)]
[6]; [7]
  IC50: 19 nM
[3]
  Relative amount of FVII protein (%): 3%

## CCCCCCCCCC(CCCCCCC)C(=O)OCCCCCCC(CCCCCCOC(=O)C(CCCCCCC)CCCCCCCCC)OC(=O)OCCN(CC)CCN(CC)CC (centres unmarked) [Example 58, 7-(((2-((2-(Diethylamino)ethyl)(ethyl)amino)ethoxy)carbonyl)oxy)tridecane-1,13-diylbis(2-heptylundecanoate)]
[3]
  Relative amount of FVII protein (%): 14%

## CCN(CC)CCN(CC)CCOC(=O)OC(CCCCCCOC(=O)C(CCC(C)CC(C)(C)C)C(C)CC(C)(C)C)CCCCCCOC(=O)C(CCC(C)CC(C)(C)C)C(C)CC(C)(C)C (centres unmarked) [Example 59, 7-(((2-((2-(Diethylamino)ethyl)(ethyl)amino)ethoxy)carbonyl)oxy)tridecane-1,13-diylbis(2-(4,4-dimethylpentan-2-yl)-5,7,7-trimethyloctanoate)]
[3]
  Relative amount of FVII protein (%): 10%

## CCCCCCCCC(CCCCCC)C(=O)OCCCCCCC(CCCCCCOC(=O)C(CCCCCC)CCCCCCCC)OC(=O)OCCN(CCN(CC)CC)C(C)C (centres unmarked) [Example 62, 7-(((2-((2-(Diethylamino)ethyl)(isopropyl)amino)ethoxy)carbonyl)oxy)tridecane-1,13-diylbis(2-hexyldecanoate)]
[3]
  Relative amount of FVII protein (%): 3%

## CCCCCCCCC(CCCCCCCC)CC(=O)OCCCCCCC(CCCCCCOC(=O)CC(CCCCCCCC)CCCCCCCC)OC(=O)OCCN(CC)CCN(CC)CC [Example 65, 7-(((2-((2-(Diethylamino)ethyl)(ethyl)amino)ethoxy)carbonyl)oxy)tridecane-1,13-diylbis(3-octylundecanoate)]
[3]
  Relative amount of FVII protein (%): 11%

## CCCCCCC(CCCCCC)CC(=O)OCCCCCCC(CCCCCCOC(=O)CC(CCCCCC)CCCCCC)OC(=O)OCCN(CC)CCN(CC)CC [Example 67, 7-(((2-((2-(Diethylamino)ethyl)(ethyl)amino)ethoxy)carbonyl)oxy)tridecane-1,13-diylbis(3-hexylnonanoate)]
[6]; [7]
  IC50: 22 nM
[3]
  Relative amount of FVII protein (%): 5%

## CCCCCCCC(CCCCCCC)CC(=O)OCCCCCCC(CCCCCCOC(=O)CC(CCCCCCC)CCCCCCC)OC(=O)OCCN(CC)CCN(CC)CC [Example 70, 7-(((2-((2-(diethylamino)ethyl)(ethyl)amino)ethoxy)carbonyl)oxy)tridecane-1,13-diylbis(3-heptyldecanoate)]
[6]
  IC50: 24 nM
[3]
  Relative amount of FVII protein (%): 6%

## CCCCCCCCC(CCCCCC)C(=O)OCCCCCC(CCCCCOC(=O)C(CCCCCC)CCCCCCCC)OC(=O)OCCN(CC)CCN(CC)CC (centres unmarked) [Example 71, 6-(((2-((2-(Diethylamino)ethyl)(ethyl)amino)ethoxy)carbonyl)oxy)undecane-1,11-diylbis(2-hexyldecanoate)]
[3]
  Relative amount of FVII protein (%): 4%

## CCCCCCCCC(CCCCCC)C(=O)OCCCCC(CCCCOC(=O)C(CCCCCC)CCCCCCCC)OC(=O)OCCN(CC)CCN(CC)CC (centres unmarked) [Example 73, 5-(((2-((2-(Diethylamino)ethyl)(ethyl)amino)ethoxy)carbonyl)oxy)nonane-1,9-diylbis(2-hexyldecanoate)]
[6]
  IC50: 24 nM
[3]
  Relative amount of FVII protein (%): 1%

## CCCCCCCCC(CCCCCCCC)C(=O)OCCCCCCC(CCCCCCOC(=O)C(CCCCCCCC)CCCCCCCC)OC(=O)OCCN(CC)CCN(CC)CC [Example 74, 7-(((2-((2-(Diethylamino)ethyl)(ethyl)amino)ethoxy)carbonyl)oxy)tridecane-1,13-diylbis(2-octyldecanoate)]
[6]
  IC50: 22 nM
[3]
  Relative amount of FVII protein (%): 4%

## CCCCCCCC(CCCCCCC)C(=O)OCCCCCCC(CCCCCCOC(=O)C(CCCCCCC)CCCCCCC)OC(=O)OCCN(CC)CCN(CC)CC [Example 76, 7-(((2-((2-(Diethylamino)ethyl)(ethyl)amino)ethoxy)carbonyl)oxy)tridecane-1,13-diylbis(2-heptylnonanoate)]
[6]; [7]
  IC50: 18 nM
[3]
  Relative amount of FVII protein (%): 4%
